The record followed here is the OligoGym collection.

In the data set the target is ATXN2. In words: mouse, dose not given. The note with it: ASO.

HELM strings list units from the 5' end as sugar, base in round brackets, then linkage (d deoxyribose, r ribose, m 2'-O-methyl, p phosphodiester). Strings are as the collection lists them; they lack the last nucleoside at the 3' end of the tested compound. [moe] = 2'-O-(2-methoxyethyl) (MOE); [sp] = phosphorothioate linkage; [m5C] = 5-methylcytosine

“RNA1{[moe](T)[sp].[moe](T)p.[moe]([m5C])p.[moe](T)p.[moe](G)[sp].d([m5C])[sp].d(T)[sp].d(A)[sp].d(A)[sp].d([m5C])[sp].d(T)[sp].d(G)[sp].d(G)[sp].[moe](T)p.[moe](T)p.[moe](T)[sp].[moe](G)}$$$$ (last 3' nucleoside missing)” had a 3 h FOB score of 1.75 score 0-7.
The figure for “RNA1{[moe](T)[sp].[moe]([m5C])p.[moe](T)p.[moe]([m5C])p.[moe](T)p.d(A)[sp].d(T)[sp].d(T)[sp].d(T)[sp].d([m5C])[sp].d(T)[sp].d(T)[sp].d(T)[sp].d(G)[sp].d(T)[sp].[moe]([m5C])p.[moe]([m5C])p.[moe](A)[sp].[moe](G)}$$$$ (last 3' nucleoside missing)” is 6.75 score 0-7; for “RNA1{[moe](G)[sp].[moe](A)p.[moe](A)p.[moe](G)p.[moe]([m5C])p.d(A)[sp].d(G)[sp].d(A)[sp].d(T)[sp].d(T)[sp].d(T)[sp].d(T)[sp].d(T)[sp].d(T)[sp].d(T)[sp].[moe](T)p.[moe](T)p.[moe](T)[sp].[moe](T)}$$$$ (last 3' nucleoside missing)” it is 3 score 0-7.
In the case of “RNA1{[moe](G)[sp].[moe](T)p.[moe](A)p.[moe](T)p.[moe](G)[sp].d(T)[sp].d(T)[sp].d(T)[sp].d(G)[sp].d(T)[sp].d([m5C])[sp].d(T)[sp].d(G)[sp].[moe](T)p.[moe]([m5C])p.[moe](T)[sp].[moe](T)}$$$$ (last 3' nucleoside missing)”, the 3 h FOB score is 6.5 score 0-7.
For “RNA1{[moe](T)[sp].[moe](G)p.[moe](G)p.[moe](A)p.d(T)[sp].d(T)[sp].d([m5C])[sp].d(T)[sp].d(G)[sp].d(T)[sp].d(A)[sp].d([m5C])[sp].d(T)[sp].d(T)[sp].[moe](T)p.[moe](T)p.[moe]([m5C])p.[moe](T)[sp].[moe]([m5C])}$$$$ (last 3' nucleoside missing)”, the 3 h FOB score came out at 3.5 score 0-7.
The figure for “RNA1{[moe](A)[sp].[moe](T)p.[moe](G)p.[moe](T)p.[moe](A)p.d(G)[sp].d(T)[sp].d(T)[sp].d(A)[sp].d([m5C])[sp].d(A)[sp].d(T)[sp].d(G)[sp].d(T)[sp].d(A)[sp].[moe](A)p.[moe]([m5C])p.[moe]([m5C])[sp].[moe](A)}$$$$ (last 3' nucleoside missing)” is 2 score 0-7.
Take “RNA1{[moe](G)[sp].[moe](G)p.[moe](A)p.[moe](T)p.[moe](T)p.d([m5C])[sp].d(T)[sp].d(G)[sp].d(T)[sp].d(A)[sp].d([m5C])[sp].d(T)[sp].d(T)[sp].d(T)[sp].d(T)[sp].[moe]([m5C])p.[moe](T)p.[moe]([m5C])[sp].[moe](A)}$$$$ (last 3' nucleoside missing)”: the 3 h FOB score came to 1 score 0-7.
The figure for “RNA1{[moe]([m5C])[sp].[moe](A)p.[moe]([m5C])p.[moe](A)p.[moe](G)p.d(T)[sp].d(T)[sp].d(T)[sp].d([m5C])[sp].d(A)[sp].d([m5C])[sp].d(T)[sp].d(A)[sp].d(G)[sp].d(G)[sp].[moe](T)p.[moe](T)p.[moe]([m5C])[sp].[moe](T)}$$$$ (last 3' nucleoside missing)” is 4.25 score 0-7; for “RNA1{[moe](T)[sp].[moe]([m5C])p.[moe]([m5C])p.[moe](A)p.[moe](A)p.d(T)[sp].d(T)[sp].d(T)[sp].d([m5C])[sp].d(A)[sp].d(G)[sp].d(A)[sp].d([m5C])[sp].d(T)[sp].d(T)[sp].[moe]([m5C])p.[moe](T)p.[moe](T)[sp].[moe](G)}$$$$ (last 3' nucleoside missing)” it is 2 score 0-7.
The figure for “RNA1{[moe]([m5C])[sp].[moe](A)p.[moe](G)p.[moe](A)p.[moe](A)p.d(A)[sp].d(G)[sp].d([m5C])[sp].d(T)[sp].d(G)[sp].d(T)[sp].d(G)[sp].d(T)[sp].d(G)[sp].d(T)[sp].[moe](T)p.[moe](T)p.[moe](A)[sp].[moe](A)}$$$$ (last 3' nucleoside missing)” is 6 score 0-7.
